The values below come from US20100016275A1, “NOVEL COMPOUND 395” (priority 2008, published 2010).

As usually defined, the solubility is how much of the substance goes into solution per volume. A lower solubility goes with little dissolved substance.

A short description of series [1]: Human hepatic intrinsic clearance (CLint) assay in human hepatocytes. The conditions noted are these: human, human hepatocytes in suspension, pH 7.4, human hepatocytes. The format is in vitro ADME. An excerpt:
The hepatic metabolic component of human clearance is predicted from scaled in vitro intrinsic clearance (CLint) data from human hepatocytes (see Chem Biol Interact. 2007, 168(1), 2-15) and from the extent of human blood binding, primarily due to plasma protein binding. The well stirred model of the liver is a model for predicting blood clearance in the liver from intrinsic clearance (CLint) determined using hepatocytes. (see Drug Metab Dispos. 2005, 33(9), 1304-11) The model is usually written as:
Human Hepatic Intrinsic Clearance (CLint) Assay
For the majority of drugs, a large component of their plasma clearance is contributed by hepatic metabolism. Intrinsic clearance (CLint) is a measure of the potential of a compound to undergo metabolism and can be related to hepatic clearance in vivo from a consideration of plasma protein binding and liver blood flow. Therefore, CLint may be used as an index of the relative metabolic stability of compounds within a project and compared with other external probe substrates. Furthermore, the measurement of CLint in vitro within a research project, where hepatic metabolic clearance is known to be an issue, may be a useful means of understanding the different pharmacokinetic behaviour of the compounds in vivo.
This following description outlines a method for estimating intrinsic clearance (CLint) from human hepatocyte incubations using suspension buffer containing no HSA (human serum albumin) and maintaining physiological conditions of pH 7.4.
Hepatocytes were prepared by a two-step in situ collagenase perfusion method of a portion of the human liver, suspended in protein free buffer (see below) and stored on ice, prior to incubation.
This method is based on the procedure of Seglen (Preparation of rat liver cells. I. Effect of Ca^2+ on enzymatic dispersion of isolated, perfused liver. Exptl. Cell Res., 1972, 74, p450 and preparation of isolated rat liver cells. Methods Cell Biol., 1976, 13, p 29) which itself was developed from the one step procedure of Berry and Friend (High-yield preparation of isolated rat liver parenchymal cells. J. Cell Biol., 1969, 43, p 506).
Suspension medium: 2.34 g Na HEPES, 2.0 g HSA fraction V, 0.4 g D-fructose, DMEM (1 L powder equivalent, Sigma; w/1 g.1^−1 glucose, w/Na pyruvate, w/o NaHCO3, w/o phenol red), made up to 1 L with Milli-Q water, pH to 7.4 with 1 M HCl. (Protein free suspension buffer is made omitting the 2.0 g HSA fraction V)
The capsule of a liver which has been perfused with digestion medium was cut open and the cells gently teased out into the medium. The cells were then passed through a mesh (approximately 250 μM) into a beaker containing 50 ml suspension medium. The mesh was rinsed through into the beaker with further suspension buffer to a final volume of 100 ml. The suspension was divided between two plastic 50 mL centrifuge tubes (pre-cooled on ice) and centrifuged at 50×g for 2 min at 4° C. The supernatants were decanted and the pellets re-suspended in protein free suspension buffer to the original volume. The centrifugation step was repeated and each pellet re-suspended in approximately 10 ml protein free suspension buffer. The suspensions were combined and the volume made up to 50 mL with protein free suspension buffer.
An aliquot of cell suspension (0.2 mL) was diluted with 0.2 ml protein free suspension buffer. To the diluted cells was added 0.2 mL trypan blue solution (0.4% w/v) followed by gentle mixing. After 1 min, a pasteur pipette was used to withdraw a sample and fill an Improved Neubauer Counting Chamber by capillary action. The cells were then counted (central square only) using an inverted microscope, viable cells being able to exclude the dye and non-viable cells being stained. The percentage of viable cells in the preparation was calculated thus: […]

Series [2] in a line: Measurement of solubility (S). The settings on record: thermodynamic from solid; saturated solution, shaken overnight at 20° C. The format is physicochemical. An excerpt: Measurement of Solubility (S)
The solubility of a compound is an important property affecting the preparation of solutions of the compound for screening, as well as influencing absorption of solid doses of the compound in animal and human studies. The method described below for measuring the solubility involves the generation of a saturated solution of the compound, followed by assaying the solution using HPLC with UV quantification and MS identification.
Saturated solutions for determining the solubility were prepared by placing about 0.3-3.0 ml of solvent in glass screw-top sample tubes along with some of the compound. The tubes are then shaken overnight in the constant temperature room (20° C.). After shaking, undissolved material should be present in the solution, and more was added and shaking continued if this was not the case. The samples were then transferred to a centrifuge tube and centrifuged using a Heraeus Biofuge Fresco centrifuge at 13000 rpm for about 30 minutes. The supernatant was then removed, placed in a new centrifuge tube and centrifuged again for about 30 minutes at 13000 rpm. The undissolved material formed a pellet at the bottom of the tube and the liquid above the pellet was removed for assaying. The solution was then analysed using HPLC with UV quantification. If the response for the compound is very strong then the solution should be accurately diluted such that the response lies within a more suitable range of UV response. A standard was also prepared by accurately weighing a sample of the compound and dissolving it in a suitable volume of a solvent that dissolves it completely (typically, DMSO, ethanol or methanol). This sample was then analysed by HPLC/UV. Again the response of this standard should lie within a suitable range of UV response otherwise a more appropriate concentration should be prepared and analysed by HPLC/UV.
The solubility (S) was calculated from the observed peak areas in the HPLC/UV chromatograms along with corrections for any dilutions of the sample and differences in injection volumes. The following equation was used: […]

Where [3] appears, read: protein free suspension buffer, pH 7.4, 37° C., read-out: Human hepatocyte Intrinsic-clearance assay CLint.
Where [4] appears, read: unit inferred, read-out: hepatic intrinsic clearance (Clint).

≈ marks a conversion by molar mass, not a printed value. Like-named read-outs stand apart in the source and are kept apart here.

For `Cc1ccc(CSc2nc(N[C@H](C)CO)cc(NS(=O)(=O)N3CCC3)n2)c(F)c1C` [Example 41], the hepatocyte CLint at 1 µM in series [1] (setting [3]) came out at 12 µL/min/1e6 cells. In series [2], this compound displayed a solubility of 372 µg/mL (≈ 817 µM).

Take `Cc1cccc(CSc2nc(N[C@H](C)CO)cc(NS(=O)(=O)N3CCC3)n2)c1F` [Example 40]: in series [1] (setting [3]), the hepatocyte CLint at 1 µM came to 9 µL/min/1e6 cells.

Consider `CS(=O)(=O)Nc1cc(NC(CO)CO)nc(SCc2ccccc2)n1` [Example 21], for which the hepatocyte CLint at 1 µM in series [1] (setting [3]) and in series [1] (setting [4]) was 2.3 µL/min/1e6 cells throughout.

Take `C[C@@H](Nc1cc(NS(=O)(=O)N2CCC2)nc(SCc2cccc(F)c2F)n1)[C@@H](O)CO` [Example 1, N-(2-[(2,3-difluorobenzyl)thio]-6-{[(1R,2R)-2,3-dihydroxy-1-methylpropyl]amino}pyrimidin-4-yl)azetidine-1-sulfonamide]: the hepatocyte CLint at 1 µM in series [1] (setting [3]) and in series [1] (setting [4]) was 2.1 µL/min/1e6 cells each time. In series [2], this compound yielded a solubility of 317 µg/mL (≈ 667 µM).

In the case of `Cc1cccc(CSc2nc(N[C@H](C)CO)cc(NS(C)(=O)=O)n2)c1F` [Example 39], the hepatocyte CLint at 1 µM in series [1] (setting [3]) worked out at 5.1 µL/min/1e6 cells. In series [2], this compound returned a solubility of 342 µg/mL (≈ 854 µM).
